target: T1, human IKK-2 (rhIKK-2 homodimer) (Homo sapiens, UniProt O14920); assay: IKK-2 Resin Enzyme Assay (Human IKK-2 Enzyme Assay); type: biochemical; details: human IKK-2, resin enzyme assay; read-out: IC50 (μM) hIKK-2
T1 construct: FLAG (DYKDDDDKD) (C); made in house; host or cells: insect cells (baculovirus, pFastBac)
T1 sequence (O14920 1-756): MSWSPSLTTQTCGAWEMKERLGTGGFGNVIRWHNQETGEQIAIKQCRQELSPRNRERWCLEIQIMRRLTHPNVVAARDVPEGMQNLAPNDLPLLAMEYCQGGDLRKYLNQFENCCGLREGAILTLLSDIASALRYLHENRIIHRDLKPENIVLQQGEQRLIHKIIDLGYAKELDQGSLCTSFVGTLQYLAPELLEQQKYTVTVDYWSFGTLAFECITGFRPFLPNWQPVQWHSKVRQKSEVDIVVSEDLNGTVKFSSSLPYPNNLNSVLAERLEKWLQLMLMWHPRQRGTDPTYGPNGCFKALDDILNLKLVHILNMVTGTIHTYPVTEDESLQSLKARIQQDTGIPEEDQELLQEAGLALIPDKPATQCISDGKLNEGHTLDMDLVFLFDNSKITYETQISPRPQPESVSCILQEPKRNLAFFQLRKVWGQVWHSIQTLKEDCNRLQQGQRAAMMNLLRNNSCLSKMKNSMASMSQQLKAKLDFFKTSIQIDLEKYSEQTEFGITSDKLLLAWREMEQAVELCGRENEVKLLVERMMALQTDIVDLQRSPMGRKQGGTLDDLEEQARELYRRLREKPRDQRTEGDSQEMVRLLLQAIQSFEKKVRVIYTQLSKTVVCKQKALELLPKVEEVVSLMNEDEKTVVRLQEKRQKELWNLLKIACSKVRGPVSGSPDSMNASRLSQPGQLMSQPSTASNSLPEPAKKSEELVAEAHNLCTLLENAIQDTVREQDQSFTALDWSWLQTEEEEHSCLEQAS
Procedure, shortened: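 C-terminally FLAG-tagged human IKK-2 homodimer, baculovirus-expressed in insect cells and anti-FLAG purified. Reaction mix: 5 μM biotinylated IκBα peptide (Ser32/Ser36 region), 1 μM ATP with [γ-33P]ATP, 2 mM MgCl2, 2 mM MnCl2, 10 mM NaF, 1 mM DTT, 25 mM HEPES pH 7.6. Incubated 30 min at 25 °C; IC50 derived.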

CC(=O)c1ccc(-c2cccc(-n3cc(NC(N)=O)c(C(N)=O)n3)c2)cc1 [Example 53, 1-(4′-acetyl-1,1′-biphenyl-3-yl)-4-[(aminocarbonyl)amino]-1H-pyrazole-3-carboxamide] and NC(=O)Nc1cn(-c2cccc(-c3ccc(C(=O)O)cc3)c2)nc1C(N)=O [Example 58, 3′-{3-(aminocarbonyl)-4-[(aminocarbonyl)amino]-1H-pyrazol-1-yl}-1,1′-biphenyl-4-carboxylic acid] are within 1.5-fold of each other in IC50: 4.07 µM for the first, 2.81 µM for the second.

Going from NC(=O)Nc1cn(-c2ccc(-c3ccc(CO)cc3)cc2)nc1C(N)=O [Example 38, 4-[(aminocarbonyl)amino]-1-[4′-(hydroxymethyl)-1,1′-biphenyl-4-yl]-1H-pyrazole-3-carboxamide] to NC(=O)Nc1cn(-c2ccc(-c3ccc(C(=O)O)cc3)cc2)nc1C(N)=O [Example 142, 4′-{3-(aminocarbonyl)-4-[(aminocarbonyl)amino]-1H-pyrazol-1-yl}-1,1′-biphenyl-4-carboxylic acid], the IC50 falls from 0.83 µM to 0.17 µM (4.9-fold). The second is the more potent here.

NC(=O)Nc1cn(-c2cccc(-c3ccc(F)cc3)c2)nc1C(N)=O [Example 42, 4-[(aminocarbonyl)amino]-1-(4′-fluoro-1,1′-biphenyl-3-yl)-1H-pyrazole-3-carboxamide] and CN(C)c1ccc(-c2cccc(-n3cc(NC(N)=O)c(C(N)=O)n3)c2)cc1 [Example 61] are within 1.5-fold of each other in IC50: 9.22 µM for the first, 6.21 µM for the second.

Compared with COc1ccccc1-c1cccc(-n2cc(NC(N)=O)c(C(N)=O)n2)c1 [Example 88, 4-[(aminocarbonyl)amino]-1-(2′-methoxy-1,1′-biphenyl-3-yl)-1H-pyrazole-3-carboxamide], N#CCOc1ccccc1-c1cccc(-n2cc(NC(N)=O)c(C(N)=O)n2)c1 [Example 176, 4-[(aminocarbonyl)amino]-1-[2′-(cyanomethoxy)-1,1′-biphenyl-3-yl]-1H-pyrazole-3-carboxamide] is 18-fold lower in IC50: 3.2 µM for the first, 0.18 µM for the second.

Going from CCc1cc(-c2cccc(O)c2)ccc1-n1cc(NC(N)=O)c(C(N)=O)n1 [Example 282, 4-[(aminocarbonyl)amino]-1-(3-ethyl-3′-hydroxy-1,1′-biphenyl-4-yl)-1H-pyrazole-3-carboxamide] to NC(=O)Nc1cn(-c2ccc(-c3cccc(O)c3)c(F)c2)nc1C(N)=O [Example 226, 4-[(aminocarbonyl)amino]-1-(2-fluoro-3′-hydroxy-1,1′-biphenyl-4-yl)-1H-pyrazole-3-carboxamide], the IC50 falls from 12.6 µM to 1.06 µM (12-fold).

First: CNC(=O)c1ccc(-c2ccc(-n3cc(NC(N)=O)c(C(N)=O)n3)cc2)cc1 [Example 145, 4-[(aminocarbonyl)amino]-1-{4′-[(methylamino)carbonyl]-1,1′-biphenyl-4-yl}-1H-pyrazole-3-carboxamide]
Second: NC(=O)Nc1cn(-c2ccc(-c3cccc(C(=O)O)c3)cc2)nc1C(N)=O [Example 96, 4′-{3-(aminocarbonyl)-4-[(aminocarbonyl)amino]-1H-pyrazol-1-yl}-1,1′-biphenyl-3-carboxylic acid]
The IC50 of the first is 6-fold lower: 0.24 µM for the first, 1.45 µM for the second. The first is the more potent here.

Going from NC(=O)Nc1cn(-c2ccc3ccccc3c2)nc1C(N)=O [Example 219, 4-[(aminocarbonyl)amino]-1-(2-naphthyl)-1H-pyrazole-3-carboxamide] to NC(=O)Nc1cn(-c2cccc(-c3cccc(Cl)c3)c2)nc1C(N)=O [Example 347, 4-[(aminocarbonyl)amino]-1-(3′-chloro-1,1′-biphenyl-3-yl)-1H-pyrazole-3-carboxamide], the IC50 rises from 0.175 µM to > 20 µM.

Compared with NC(=O)Nc1cn(-c2ccc(-c3cc(F)ccc3OCc3ncco3)cc2)nc1C(N)=O [Example 255, 4-[(aminocarbonyl)amino]-1-[5′-fluoro-2′-(1,3-oxazol-2-ylmethoxy)-1,1′-biphenyl-4-yl]-1H-pyrazole-3-carboxamide], COc1ccc(-c2cccc(-n3cc(NC(N)=O)c(C(N)=O)n3)c2)cc1F [Example 359, 4-[(aminocarbonyl)amino]-1-(3′-fluoro-4′-methoxy-1,1′-biphenyl-3-yl)-1H-pyrazole-3-carboxamide] is 1.5-fold higher in IC50: 0.762 µM for the first, 1.18 µM for the second. The first is the more potent here.

First: NC(=O)Nc1cn(-c2cccc(-c3cccc(CO)c3)c2)nc1C(N)=O [Example 49, 4-[(aminocarbonyl)amino]-1-[3′-(hydroxymethyl)-1,1′-biphenyl-3-yl]-1H-pyrazole-3-carboxamide]
Second: CCOc1cccc(-c2cccc(-n3cc(NC(N)=O)c(C(N)=O)n3)c2)c1 [Example 354, 4-[(aminocarbonyl)amino]-1-(3′-ethoxy-1,1′-biphenyl-3-yl)-1H-pyrazole-3-carboxamide]
The IC50 of the first is lower: 2.48 µM for the first, > 20 µM for the second. The first is the more potent here.

First: NC(=O)Nc1cn(-c2cccc(-c3cn[nH]c3)c2)nc1C(N)=O [Example 57, 4-[(aminocarbonyl)amino]-1-[3-(1H-pyrazol-4-yl)phenyl]-1H-pyrazole-3-carboxamide]
Second: COc1ccc(-c2cccc(-n3cc(NC(N)=O)c(C(N)=O)n3)c2)cc1OC [Example 56, 4-[(aminocarbonyl)amino]-1-(3,4′-dimethoxy-1,1′-biphenyl-3-yl)-1H-pyrazole-3-carboxamide]
The IC50 of the first is 7.4-fold lower: 0.29 µM for the first, 2.16 µM for the second. The first is the more potent here.

First: NC(=O)Nc1cn(-c2cccc(-c3ccc(Cl)cc3Cl)c2)nc1C(N)=O [Example 369, 4-[(aminocarbonyl)amino]-1-(2′,4′-dichloro-1,1′-biphenyl-3-yl)-1H-pyrazole-3-carboxamide]
Second: Cc1cc(-n2cc(NC(N)=O)c(C(N)=O)n2)ccc1-c1cccc(OCC#N)c1 [Example 243, 1-(3′-Cyanomethoxy-2-methyl-biphenyl-4-yl)-4-ureido-1H-pyrazole-3-carboxylic acid amide]
The IC50 of the first is 2.1-fold higher: 16.7 µM for the first, 8.11 µM for the second. The second is the more potent here.

Compared with CC(C)c1cccc(-c2ccc(-n3cc(C(N)=O)c(NC(N)=O)n3)cc2)c1 [Example 116], NC(=O)Nc1nn(-c2ccc(-c3cccc(F)c3F)cc2)cc1C(N)=O [Example 112] is 5.5-fold lower in IC50: 11 µM for the first, 1.99 µM for the second. The second is the more potent here.

Compared with NC(=O)Nc1cn(-c2ccc(-c3ccccc3O)c(C(F)(F)F)c2)nc1C(N)=O [Example 234, 4-[(aminocarbonyl)amino]-1-[2′-hydroxy-2-(trifluoromethyl)-1,1′-biphenyl-4-yl]-1H-pyrazole-3-carboxamide], CCOc1cc(-n2cc(NC(N)=O)c(C(N)=O)n2)ccc1-c1ccccc1OCC#N [Example 236, 4-[(aminocarbonyl)amino]-1-[2′-(cyanomethoxy)-2-ethoxy-1,1′-biphenyl-4-yl]-1H-pyrazole-3-carboxamide] is 1.8-fold higher in IC50: 1.71 µM for the first, 3.05 µM for the second. The first is the more potent here.

First: CN1CCOc2cc(-c3cccc(-n4cc(NC(N)=O)c(C(N)=O)n4)c3)ccc21 [Example 64, 4-[(aminocarbonyl)amino]-1-[3-(4-methyl-3,4-dihydro-2H-1,4-benzoxazin-7-yl)phenyl]-1H-pyrazole-3-carboxamide]
Second: CC(=O)Nc1ccc(-c2cccc(-n3cc(NC(N)=O)c(C(N)=O)n3)c2)cc1 [Example 55, 1-[4′-(acetylamino)-1,1′-biphenyl-3-yl]-4-[(aminocarbonyl)amino]-1H-pyrazole-3-carboxamide]
The IC50 of the first is 5.8-fold higher: 6.08 µM for the first, 1.04 µM for the second.

Cc1cc(-n2cc(NC(N)=O)c(C(N)=O)n2)ccc1S(=O)(=O)c1ccc(F)cc1 [Example 298, 1-[4-(4-fluoro-benzenesulfonyl)-3-methyl-phenyl]-4-ureido-1H-pyrazole-3-carboxylic acid amide] and NC(=O)Nc1cn(-c2ccc(S(=O)(=O)c3ccccn3)cc2)nc1C(N)=O [Example 286, 1-(3-carbamoyl-1-(4-(pyridin-2-ylsulfonyl)phenyl)-1H-pyrazol-4-yl)urea] are within 1.5-fold of each other in IC50: 0.724 µM for the first, 0.663 µM for the second.

First: NC(=O)Nc1cn(-c2ccc(C(=O)N3CCOCC3)cc2)nc1C(N)=O [Example 9, 4-[(aminocarbonyl)amino]-1-[4-(morpholin-4-yl-carbonyl)phenyl]-1H-pyrazole-3-carboxamide]
Second: COC(=O)c1ccc(-n2cc(NC(N)=O)c(C(N)=O)n2)cc1 [Example 184, methyl 4-{3-(aminocarbonyl)-4-[(aminocarbonyl)amino]-1H-pyrazol-1-yl}benzoate]
The IC50 of the first is 3.8-fold lower: 1.43 µM for the first, 5.49 µM for the second.

Compared with NC(=O)Nc1cn(-c2ccc(S(N)(=O)=O)cc2)nc1C(N)=O [Example 301, 4-[(aminocarbonyl)amino]-1-[4-(aminosulfonyl)phenyl]-1H-pyrazole-3-carboxamide], NC(=O)Nc1cn(-c2ccc(I)c(Cl)c2)nc1C(N)=O [Example 6, 4-[(aminocarbonyl)amino]-1-(3-chloro-4-iodophenyl)-1H-pyrazole-3-carboxamide] is 4.4-fold higher in IC50: 0.123 µM for the first, 0.546 µM for the second. The first is the more potent here.

With N#CCc1ccc(-c2cccc(-n3cc(NC(N)=O)c(C(N)=O)n3)c2)cc1 [Example 44, 4-[(aminocarbonyl)amino]-1-[4′-(cyanomethyl)-1,1′-biphenyl-3-yl]-1H-pyrazole-3-carboxamide] the IC50 was 2.08 µM.

Source: patent US20050197338A1, “Substituted pyrazole urea compounds for the treatment of inflammation” (priority 2003, published 2005)
